{
  "source": "patent US20210177879A1",
  "about": "“VITAMIN D RECEPTOR AGONIST” (Guanghzou University of Chinese Medicine, priority 2018, published 2021)",
  "key": {"[1]": {"tested_on": "SMB-231 pancreatic cancer cells", "assay": "In vitro proliferation inhibition of SMB-231 pancreatic cancer cells", "format": "cell-based", "conditions": "concentration of 1 uM; compared with blank control group", "protocol": "(§1) The SMB-231 pancreatic cancer cells were thawed, and cultured in a changed medium after 24 hours. Medium preparation method: 6% serum, 1% of a bispecific antibody+a 1640 basal medium. After grown to confluent, the cells were digested and subcultured to expand the number of cells. When reached the required amount, the cells were digested by trypsin, centrifuged, and resuspended in PBS to prepare a cell suspension of 1×10^8 cells/ml. A part of the cell suspension was added with the monotropein, desacetyl asperulosidic acid, asperuloside, and asperulosidic acid respectively, and the inhibition rate (%) of tumor cell proliferation by each of these different compounds was examined."}, "[2]": {"tested_on": "VDR", "assay": "Detection of acting target of monotropein: VDR expression (Western blot, immunohistochemistry)", "format": "in vivo, Balb/c mice", "protocol": "Experimental method: 90 Balb/c mice of 6-8 weeks were purchased from the Experimental Animal Center in Guangzhou University of Chinese Medicine, weighed about 18-22 g, and subjected to adaptive feeding for 10 days. Modeling was divided into three stages. In the first stage, except for the normal group of animals being given saline injection, each of the other animals were intraperitoneally injected with a carcinogen AOM (10 mg/kg), and given free access to 2% DSS water from the next day for 7 days, and then given access to replaced regular drinking water for 14 days. […] The diet, water drinking and body weights of the animals were recorded daily and DAI scores were made, and the animals were killed and harvested at the 10th week. […]\nThe animals were anesthetized and harvested, and the liver, spleen, thymus and testis were weighed to calculate the organ coefficient; the colon tissue was taken, measured with a ruler for the length, and measured with a vernier caliper for the thickness, and the number and size of tumors and degree of colonic ulceration and adhesion were recorded; respective tissues were cut into small pieces and fixed, and the remaining tissues were frozen and stored; and the fixed tissues were used for HE staining and immunohistochemistry.\nA potential acting target of monotropein for interfering with the colon cancer was detected."}, "[3]": {"tested_on": "HT29 transplanted tumor", "assay": "Transplanted tumor of HT29 colon cancer cells in nude mice", "format": "in vivo", "conditions": "2 mg/kg in combination with 5-fluorouracil at half dose (20 mg/kg), once a day; effect comparable to 5-fluorouracil alone 40 mg/kg", "protocol": "as §1, with “HT29” for “SMB-231 pancreatic cancer”\nMale adult nude mice, which had the body weights of 20-24 g, were purchased from Guangdong Medical Laboratory Animal Center. After 7 days of adaptive feeding of the animals, except for the blank group, the remaining animals were injected with 0.2 ml of a cell suspension in PBS at ventrodorsal and scapula sites of them, the response conditions of the animals were observed, and the body weights of the animals were determined once a week. After 2 weeks of observation, the animals were grouped into the following groups according to tumor size: a blank group; a model group; a 5-fluorouracil control group (5-Full, 40 mg/kg); monotropein+5-fluorouracil (2 mg/kg monotropein+20 mg/kg 5-fluorouracil), desacetyl asperulosidic acid+5-fluorouracil (2 mg/kg desacetyl asperulosidic acid+20 mg/kg 5-fluorouracil), asperuloside+5-fluorouracil (2 mg/kg asperuloside+20 mg/kg 5-fluorouracil), asperulosidic acid+5-fluorouracil (2 mg/kg asperulosidic acid+20 mg/kg 5-fluorouracil), these groups being labeled as: Mo, As, Aa, Da. Each group included 8 animals; and administration was conducted once a day.\nThe status, death conditions, and eating and drinking conditions of the animals were observed daily. The body weights of the animals were determined once a week and the tumor size of the animals was determined every 4 days. The tumor volume of the animals was determined by using a vernier caliper. After 1 month of administration, the animals were sacrificed after blood was sampled from the orbit thereof, and the tumor was separated and weighed."}, "[4]": {"tested_on": "peripheral blood macrophages", "assay": "Typing of peripheral blood macrophages by flow cytometry", "format": "in vivo, Balb/c mice", "conditions": "compared with normal group", "protocol": "Experimental method: 90 Balb/c mice of 6-8 weeks were purchased from the Experimental Animal Center in Guangzhou University of Chinese Medicine, weighed about 18-22 g, and subjected to adaptive feeding for 10 days. Modeling was divided into three stages. In the first stage, except for the normal group of animals being given saline injection, each of the other animals were intraperitoneally injected with a carcinogen AOM (10 mg/kg), and given free access to 2% DSS water from the next day for 7 days, and then given access to replaced regular drinking water for 14 days. In the second stage, the animals were given free access to 2% DSS water for 10 days, and then given access to replaced regular drinking water for 14 days. In the third stage, the animals were given free access to 2% DSS water for 10 days, and then given access to replaced regular drinking water for 11 days. The normal group was given access to regular drinking water throughout the experiment. The diet, water drinking and body weights of the animals were recorded daily and DAI scores were made, and the animals were killed and harvested at the 10th week. In this experiment, the animals were divided into groups and administrated on the first day of a modeling period of the second stage, and the total number of groups was set to 5 groups. […] Dosing was conducted daily until dissection. […]"}},
  "data": [
    {"smiles": "O=C(O)C1=CO[C@@H](O[C@@H]2O[C@H](CO)[C@@H](O)[C@H](O)[C@H]2O)[C@H]2[C@@H]1C=C[C@]2(O)CO", "note": "[monotropein]", "values": [
      {"measurement": "proliferation of SMB-231 pancreatic cancer cells in vitro", "setting": "[1]", "value": "significantly inhibit the proliferation"},
      {"measurement": "expression of VDR, immunohistochemistry", "setting": "[2]; colon cancerous sites of AOM/DSS mice", "value": "up-regulated the expression of VDR"},
      {"measurement": "expression of intestinal VDR, Western blot", "setting": "[2]; colon of AOM/DSS mice", "value": "mainly promoted the expression of intestinal VDR"},
      {"measurement": "tumor proliferation in HT29 tumor-bearing mice", "setting": "[3]", "value": "significantly inhibit tumor proliferation"},
      {"measurement": "M1/M2 ratio of peripheral blood macrophages", "setting": "[4]", "value": "up-regulating trend"}
    ]}
  ]
}
